The values that follow come from patent US20260138978A1, “POSITIVE ALLOSTERIC MODULATORS OF THE MUSCARINIC ACETYLCHOLINE RECEPTOR M1” (Vanderbilt University, priority 2022, published 2026).

As a reminder, the Emax is the greatest response seen or fitted, relative to the assay's reference. As usually defined, the EC50 is the concentration needed to bring the measured effect to its halfway point.

The target of experiment [1] is T1, human mAChRM1 (Homo sapiens, UniProt P11229).
T1 construct: host or cells: CHO-K1
T1 sequence (P11229 1-460): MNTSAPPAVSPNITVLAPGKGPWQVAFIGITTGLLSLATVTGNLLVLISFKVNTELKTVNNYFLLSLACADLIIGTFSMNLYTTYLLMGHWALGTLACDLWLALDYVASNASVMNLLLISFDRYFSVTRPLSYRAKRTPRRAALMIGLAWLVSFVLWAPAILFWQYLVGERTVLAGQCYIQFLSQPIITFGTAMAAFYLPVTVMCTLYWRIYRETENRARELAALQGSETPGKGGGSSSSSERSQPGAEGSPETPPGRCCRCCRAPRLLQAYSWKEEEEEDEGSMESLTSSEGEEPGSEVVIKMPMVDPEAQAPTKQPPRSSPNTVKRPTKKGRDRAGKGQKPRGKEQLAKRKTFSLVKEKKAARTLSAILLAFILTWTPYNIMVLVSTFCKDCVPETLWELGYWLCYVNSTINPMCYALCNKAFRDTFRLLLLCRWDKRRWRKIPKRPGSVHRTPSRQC
Nature of the experiment: mAChR M1 cell-based functional assay (calcium mobilization), agonist activity upon compound addition, Emax relative to acetylcholine maximum. The conditions noted are these: for Agonist Activity Human M1 EC50 / EC50: calcium mobilization upon compound addition; for Emax: relative to the maximum for acetylcholine. The method, boiled down: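 Emax is given as a percentage of the maximal acetylcholine response, from four-parameter curves of compound-evoked calcium mobilization. Human M1-transfected CHO-K1 cells carried Fluo-4 dye, and compound (11 concentrations, 1:3 steps) was applied at 4 s of a 300 s kinetic fluorescence recording.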
In general terms: Calcium assays in cells follow changes in intracellular calcium, usually with a dye or a luminescent sensor.

Experiment [2] deals with T1, human mAChRM1. Nature of the experiment: mAChR M1 cell-based functional assay (calcium mobilization), positive allosteric modulator activity: increase in the EC20 acetylcholine response. The conditions noted are these: for Emax: PAM mode; for EC50: increase in the EC20 acetylcholine response, read-out: PAM Activity Human M1 EC50. The method, boiled down:
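Potentiation is scored as the rise in an EC20 acetylcholine-evoked calcium signal across 11-point (1:3) compound series, fitted with a four-parameter logistic equation to give EC50 and Emax. Read-out is Fluo-4 fluorescence ratio in hM1-transfected CHO-K1 cells, measured kinetically on FDSS.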

Each structure is given as a SMILES string.

`Cn1nc(C(C)(C)O)cc1-c1cc(F)c(CN2Cc3ncccc3C2=O)c(C2CC2)c1` [Compound 68, 6-(2-cyclopropyl-6-fluoro-4-(3-(2-hydroxypropan-2-yl)-1-methyl-1H-pyrazol-5-yl)benzyl)-6,7-dihydro-5H-pyrrolo[3,4-b]pyridin-5-one]: in experiment [1], the “Agonist Activity Human M1 EC50” value is “inactive”. In experiment [2], the maximal effect (Emax) worked out at 49% and the concentration giving a half-maximal response (EC50) was at least 10000 nM.
As for `Cn1cc2c(-c3ccc(CN4Cc5cccnc5C4=O)c(F)c3)ccc(C(C)(C)O)c2n1` [Compound 130, 6-(2-fluoro-4-(7-(2-hydroxypropan-2-yl)-2-methyl-2H-indazol-4-yl)benzyl)-5,6-dihydro-7H-pyrrolo[3,4-b]pyridin-7-one], in experiment [1], the EC50 was 7490 nM and the Emax stood at 12%. In addition, in experiment [2], the Emax was 88% and the 50% effective concentration (EC50) came out at 251 nM.
As for `Cn1cc2c(C(C)(C)O)cc(-c3ccc(CN4Cc5ncccc5C4=O)c(F)c3)cc2n1` [Compound 21, 6-(2-fluoro-4-(4-(2-hydroxypropan-2-yl)-2-methyl-2H-indazol-6-yl)benzyl)-6,7-dihydro-5H-pyrrolo[3,4-b]pyridin-5-one], in experiment [1], the “Agonist Activity Human M1 EC50” value is “inactive”. In experiment [2], the Emax is 50% and the EC50 is at least 10000 nM.
The corresponding values for `Cn1cc2c(-c3cc(F)c(CN4Cc5ncccc5C4=O)c(F)c3)cc(C(C)(C)O)cc2n1` [Compound 24, 6-(2,6-Difluoro-4-(6-(2-hydroxypropan-2-yl)-2-methyl-2H-indazol-4-yl)benzyl)-6,7-dihydro-5H-pyrrolo[3,4-b]pyridin-5-one] are “inactive”, 81% and 1920 nM.
For the molecule `Cn1cc2c(-c3cc(F)c(CN4Cc5ncccc5C4=O)c(F)c3)ccc(C3(O)CN(C(=O)OC(C)(C)C)C3)c2n1` [Compound 113, tert-butyl 3-(4-(3,5-difluoro-4-((5-oxo-5,7-dihydro-6H-pyrrolo[3,4-b]pyridin-6-yl)methyl)phenyl)-2-methyl-2H-indazol-7-yl)-3-hydroxyazetidine-1-carboxylate], in experiment [1], the EC50 is at least 10000 nM and the Emax worked out at 13%. In experiment [2], the maximal effect (Emax) amounted to 76% and the concentration giving a half-maximal response (EC50) is 856 nM.
For the molecule `Cn1cc2c(-c3cc(F)c(CN4Cc5ncccc5C4=O)c(Cl)c3)ccc(C(C)(C)O)c2n1` [Compound 61, 6-(2-chloro-6-fluoro-4-(7-(2-hydroxypropan-2-yl)-2-methyl-2H-indazol-4-yl)benzyl)-6,7-dihydro-5H-pyrrolo[3,4-b]pyridin-5-one], in experiment [1], the EC50 amounted to 4610 nM and the maximal effect (Emax) was determined as 18%. Also, in experiment [2], the Emax came out at 70% and the EC50 was 103 nM.
For `Cc1cc(-c2cc3c(c(C(C)(C)O)c2)OCO3)cc(F)c1CN1Cc2ncccc2C1=O` [Compound 18, 6-(2-fluoro-4-(7-(2-hydroxypropan-2-yl)benzo[d][1,3]dioxol-5-yl)-6-methylbenzyl)-6,7-dihydro-5H-pyrrolo[3,4-b]pyridin-5-one], the “Agonist Activity Human M1 EC50” value in experiment [1] is “inactive”. Further, in experiment [2], the Emax worked out at 49% and the half-maximal effective concentration (EC50) turned out to be 6370 nM.
With `Cn1cc2c(-c3cc(Cl)c(CN4Cc5ncccc5C4=O)c(Cl)c3)ccc(C(C)(C)O)c2n1` [Compound 64, 6-(2,6-dichloro-4-(7-(2-hydroxypropan-2-yl)-2-methyl-2H-indazol-4-yl)benzyl)-6,7-dihydro-5H-pyrrolo[3,4-b]pyridin-5-one], the concentration for a half-maximal effect (EC50) in experiment [1] was found to be 6330 nM; in experiment [2], 145 nM. For the same molecule, the Emax in experiment [1] was determined as 15%; in experiment [2], 63%.
As for `C[C@H](c1c(F)cc(-c2ccc(C(C)(C)O)c3nn(C)cc23)cc1F)N1Cc2ncccc2C1=O` [Compound 94, (R)-6-(1-(2,6-difluoro-4-(7-(2-hydroxypropan-2-yl)-2-methyl-2H-indazol-4-yl)phenyl)ethyl)-6,7-dihydro-5H-pyrrolo[3,4-b]pyridin-5-one], the “Agonist Activity Human M1 EC50” value in experiment [1] was “inactive”. In experiment [2], the Emax came to 60% and the EC50 was 1270 nM.
The corresponding values for `Cc1cc(-c2cc(C(C)(C)O)c3nn(C)cc3c2)ccc1CN1Cc2cccc(F)c2C1=O` [Compound 167, 7-fluoro-2-(4-(7-(2-hydroxypropan-2-yl)-2-methyl-2H-indazol-5-yl)-2-methylbenzyl)isoindolin-1-one] are “inactive”, 74% and 3120 nM.
As for `Cn1cc2c(-c3cc(F)c(CN4Cc5c(F)cccc5C4=O)c(F)c3)ccc(C(C)(C)O)c2n1` [Compound 106, 2-(2,6-difluoro-4-(7-(2-hydroxypropan-2-yl)-2-methyl-2H-indazol-4-yl)benzyl)-4-fluoroisoindolin-1-one], the “Agonist Activity Human M1 EC50” value in experiment [1] is “inactive”. Also, in experiment [2], the Emax was determined as 59% and the half-maximal effective concentration (EC50) is 4680 nM.
Turning to `COc1cc(-c2ccc(C(C)(C)O)c3nn(C)cc23)cc(F)c1CN1Cc2ncccc2C1=O` [Compound 60, 6-(2-fluoro-4-(7-(2-hydroxypropan-2-yl)-2-methyl-2H-indazol-4-yl)-6-methoxybenzyl)-6,7-dihydro-5H-pyrrolo[3,4-b]pyridin-5-one], in experiment [1], the “Agonist Activity Human M1 EC50” value is “inactive”. Further, in experiment [2], the maximal response (Emax) amounted to 68% and the EC50 came to 163 nM.
`Cn1cc(-c2ccc(CN3Cc4ncccc4C3=O)cc2)c(C(C)(C)O)n1` [Compound 32, 6-(4-(3-(2-hydroxypropan-2-yl)-1-methyl-1H-pyrazol-4-yl)benzyl)-6,7-dihydro-5H-pyrrolo[3,4-b]pyridin-5-one]: the “Agonist Activity Human M1 EC50” value in experiment [1] is “inactive”. Further, in experiment [2], the maximal effect (Emax) stood at 48% and the half-maximal effective concentration (EC50) is at least 10000 nM.
With `Cn1cc2c(-c3cc(F)c(CN4Cc5ncc(C6CC6)cc5C4=O)c(F)c3)ccc(C(C)(C)O)c2n1` [Compound 175, 3-cyclopropyl-6-(2,6-difluoro-4-(7-(2-hydroxypropan-2-yl)-2-methyl-2H-indazol-4-yl)benzyl)-6,7-dihydro-5H-pyrrolo[3,4-b]pyridin-5-one], in experiment [1], the “Agonist Activity Human M1 EC50” value was “inactive”. Moreover, in experiment [2], the maximal effect (Emax) was determined as 74% and the EC50 came out at 2590 nM.
As for `CC(C)(O)c1cc2c(-c3cc(F)c(CN4Cc5ncccc5C4=O)c(F)c3)cccn2n1` [Compound 107, 6-(2,6-difluoro-4-(2-(2-hydroxypropan-2-yl)pyrazolo[1,5-a]pyridin-4-yl)benzyl)-6,7-dihydro-5H-pyrrolo[3,4-b]pyridin-5-one], in experiment [1], the EC50 is at least 10000 nM and the Emax was 12%. For the same molecule, in experiment [2], the Emax worked out at 77% and the 50% effective concentration (EC50) came out at 2790 nM.
As for `Cn1cc2c(-c3cc(F)c(CN4Cc5ncccc5C4=O)cc3F)ccc(C(C)(C)O)c2n1` [Compound 62, 6-(2,5-difluoro-4-(7-(2-hydroxypropan-2-yl)-2-methyl-2H-indazol-4-yl)benzyl)-6,7-dihydro-5H-pyrrolo[3,4-b]pyridin-5-one], in experiment [1], the EC50 was at least 10000 nM and the maximal effect (Emax) was determined as 30%. In experiment [2], the maximal effect (Emax) turned out to be 73% and the 50% effective concentration (EC50) is 180 nM.
For the molecule `CC(C)(O)c1ccc(-c2cc(F)c(CN3Cc4cccnc4C3=O)c(Cl)c2)cc1` [Compound 120, 6-((3-chloro-5-fluoro-4′-(2-hydroxypropan-2-yl)-[1,1′-biphenyl]-4-yl)methyl)-5,6-dihydro-7H-pyrrolo[3,4-b]pyridin-7-one], the “Agonist Activity Human M1 EC50” value in experiment [1] was “inactive”. Moreover, in experiment [2], the Emax came to 66% and the 50% effective concentration (EC50) came out at 3700 nM.
For `CC(C)(O)c1ccc(-c2cc(F)c(CN3Cc4ncccc4C3=O)c(F)c2)cc1` [Compound 5, 6-((3,5-difluoro-4′-(2-hydroxypropan-2-yl)-[1,1′-biphenyl]-4-yl)methyl)-6,7-dihydro-5H-pyrrolo[3,4-b]pyridin-5-one], the “Agonist Activity Human M1 EC50” value in experiment [1] is “inactive”. In experiment [2], the Emax came to 79% and the EC50 came to 1460 nM.
Take `Cn1cc2c(-c3cc(F)c(CN4Cc5ncccc5C4=O)c(F)c3)ccc(C(O)(C3CC3)C3CC3)c2n1` [Compound 84, 6-(4-(7-(dicyclopropyl(hydroxy)methyl)-2-methyl-2H-indazol-4-yl)-2,6-difluorobenzyl)-6,7-dihydro-5H-pyrrolo[3,4-b]pyridin-5-one]: the “Agonist Activity Human M1 EC50” value in experiment [1] was “inactive”. Further, in experiment [2], the maximum response (Emax) is 84% and the 50% effective concentration (EC50) was found to be 1440 nM.
Take `CCC(O)(CC)c1ccc(-c2ccc(CN3Cc4ncccc4C3=O)c(F)c2)c2cn(C)nc12` [Compound 70, 6-(2-fluoro-4-(7-(3-hydroxypentan-3-yl)-2-methyl-2H-indazol-4-yl)benzyl)-6,7-dihydro-5H-pyrrolo[3,4-b]pyridin-5-one]: the “Agonist Activity Human M1 EC50” value in experiment [1] is “inactive”. Moreover, in experiment [2], the Emax was 78% and the EC50 stood at 2210 nM.
